# Results from US9371337B2, “β-lactamase inhibitors” (The Regents of the University of California, priority 2011, dated 2016).
# Columns and labels:
# [1] = test system: C. freundii overproducing chromosomally-mediated class C β-lactamase; assay: MIC of third-generation cephalosporins alone and with compounds 4 or 9 (Table 3); type: cell-based, Citrobacter freundii; conditions: antibiotic alone
# From the text: (§1) Antimicrobial activity was investigated quantitatively to determine the minimum inhibitory concentrations (MICs) of the β-lactam/inhibitor combination necessary to inhibit the bacterial growth (Table 3). The MICs of β-lactams alone against the strains corresponded to a high level of resistance according to Clinical and Laboratory Standards Institute (CLSI) standards. (Clinical and Laboratory Standards Institute, Performance standards for antimicrobial susceptibility testing, 20th Informational Supplement, M100-S20 2010) The compounds had no measurable antibiotic activity when used alone.
# (§2) Susceptibility testing was performed and interpreted following the guidelines of CLSI. (Clinical and Laboratory Standards Institute, Performance standards for antimicrobial susceptibility testing, 20th Informational Supplement, M100-S20 2010) The compounds were dissolved in 50% DMSO, and dilutions were performed using Muller-Hinton medium. An adequate final concentration was obtained to determine the minimum inhibitory concentrations (MICs). The concentration of DMSO was maintained below 5%. The inhibitors were tested for synergy with the third-generation β-lactams ceftazidime and cefotaxime against several clinical bacteria. […] Each value reported reflects the average of three independent experiments. […] A Klebsiella pneumoniae isolate produced the inducible plasmid-mediated class C enzyme DHA-1. The Friedman's test and the Wilcoxon signed rank test were used to compare MIC values. Statistical significance was established at p<0.05.
# [2] = test system: P. aeruginosa overproducing chromosomally-mediated class C β-lactamase; assay: as above; type: cell-based, Pseudomonas aeruginosa; conditions: antibiotic alone
# From the text: as §1, §2
# [3] = test system: C. freundii 101, AmpC-overproducing; assay: MIC of third-generation cephalosporins alone and with compounds (Table 6); type: cell-based, Citrobacter freundii; conditions: antibiotic alone
# Protocol: (§3) The anti-resistance activity of inhibitors was investigated by the determination of the minimum inhibitory concentrations (MICs) of the β-lactam/inhibitor combination necessary to inhibit the growth of clinically-isolated bacteria resistant to third-generation cephalosporins via expression of class A or class C β-lactamases (Table 6).
# (§4) Susceptibility testing was performed and interpreted following the guidelines of CLSI. (Clinical and Laboratory Standards Institute, Performance standards for antimicrobial susceptibility testing, 20th Informational Supplement, M100-S20 2010) The compounds were dissolved in 50% DMSO, and dilutions were performed using Muller-Hinton medium. An adequate final concentration was obtained to determine the minimum inhibitory concentrations (MICs). The concentration of DMSO was maintained below 5%. The inhibitors were tested for synergy with the third-generation β-lactams ceftazidime and cefotaxime against several clinical bacteria. The ratio of β-lactams to inhibitors was 1:4. Each value reported reflects the average of three independent experiments. […] The Friedman's test and the Wilcoxon signed rank test were used to compare MIC values. Statistical significance was established at p<0.05.
# (§5) Table 6. MICs (μg/ml) of third-generation cephalosporins alone and in association with the compounds (ratio 1/4) for clinical bacteria. CTX, cefotaxime and CAZ, ceftazidime. ^1, AmpC-overproducing bacteria; ^2, CTX-M-14-producing E. coli; ^3, KPC-2-producing K. pneumoniae; ^4, OXA-48-producing K. pneumoniae; ^5, NDM-1-producing C. freundii.
# [4] = test system: C. freundii, AmpC-overproducing; assay: as above; type: cell-based, Citrobacter freundii; conditions: antibiotic alone
# Protocol: as §3, §4, §5
# [5] = test system: NDM-1-producing C. freundii; assay: as above; type: cell-based, Citrobacter freundii; conditions: antibiotic alone
# Protocol: as §3, §4, §5
# [6] = test system: K. pneumoniae, AmpC-overproducing; assay: as above; type: cell-based, Klebsiella pneumoniae; conditions: antibiotic alone
# Protocol: as §3, §4, §5
# [7] = test system: OXA-48-producing K. pneumoniae; assay: as above; type: cell-based, Klebsiella pneumoniae; conditions: antibiotic alone
# Protocol: as §3, §4, §5
# [8] = test system: CTX-M-14-producing E. coli; assay: as above; type: cell-based, Escherichia coli; conditions: antibiotic alone
# Protocol: as §3, §4, §5
# [9] = test system: E. coli 142, AmpC-overproducing; assay: as above; type: cell-based, Escherichia coli; conditions: antibiotic alone
# Protocol: as §3, §4, §5
# [10] = test system: E. coli 144, AmpC-overproducing; assay: as above; type: cell-based, Escherichia coli; conditions: antibiotic alone
# Protocol: as §3, §4, §5
# [11] = test system: E. coli 145, AmpC-overproducing; assay: as above; type: cell-based, Escherichia coli; conditions: antibiotic alone
# Protocol: as §3, §4, §5
# [12] = test system: E. coli 146, AmpC-overproducing; assay: as above; type: cell-based, Escherichia coli; conditions: antibiotic alone
# Protocol: as §3, §4, §5
# [13] = test system: E. coli R1, AmpC-overproducing; assay: as above; type: cell-based, Escherichia coli; conditions: antibiotic alone
# Protocol: as §3, §4, §5
# [14] = test system: E. coli, AmpC-overproducing; assay: as above; type: cell-based, Escherichia coli; conditions: antibiotic alone
# Protocol: as §3, §4, §5
# [15] = test system: hospital-derived strain of E. coli that overproduces AmpC; assay: MIC for the strain used in the mouse model; type: cell-based; conditions: Escherichia coli
smiles,measurement,setting,value
CO/N=C(\C(=O)N[C@@H]1C(=O)N2C(C(=O)O)=C(COC(C)=O)CS[C@H]12)c1csc(N)n1 [Cefotaxime],"MIC, cephalosporin alone",[1],16 µg/mL
same,"MIC, cephalosporin alone",[2],>128 µg/mL
same,"MIC, cephalosporin alone",[3],64 µg/mL
same,"MIC, cephalosporin alone",[4],16 µg/mL
same,"MIC, cephalosporin alone",[5],512 µg/mL
same,"MIC, cephalosporin alone",[6],8 µg/mL
same,"MIC, cephalosporin alone",[7],256 µg/mL
same,"MIC, cephalosporin alone",[8],256 µg/mL
same,"MIC, cephalosporin alone",[9],4 µg/mL
same,"MIC, cephalosporin alone",[10],16 µg/mL
same,"MIC, cephalosporin alone",[11],16 µg/mL
same,"MIC, cephalosporin alone",[12],8 µg/mL
same,"MIC, cephalosporin alone",[13],4 µg/mL
same,"MIC, cephalosporin alone",[14],8 µg/mL
same,MIC,[15],32 µg/mL
